Test results published in paper PMC7000730, “CAPA neuropeptides and their receptor form an anti-diuretic hormone signaling system in the human disease vector, Aedes aegypti” (Scientific Reports, 2020).
“Also recorded” adds a separate entry of the source. Where a name gives a salt, the structure may show the parent alone. Read-outs that look alike come from different tables or passages of the source. Non-standard residues stand in square brackets, D forms with d. Residues, ends and D or L forms follow the SMILES beside them. No end group written: not given here. pGlu = O=C1CC[C@@H](C(=O)O)N1

What was measured:
[1] = target: T1, A. aegypti CAPA receptor (CAPAr, anti-diuretic hormone receptor) (Aedes aegypti, UniProt A0A7D5D2Z2); assay: Heterologous receptor functional activation bioluminescence assay (CHO-K1 aequorin); type: cell-based; settings: for CAPAr activation (in words): calcium-based luminescence
T1 sequence (A0A7D5D2Z2 1-712): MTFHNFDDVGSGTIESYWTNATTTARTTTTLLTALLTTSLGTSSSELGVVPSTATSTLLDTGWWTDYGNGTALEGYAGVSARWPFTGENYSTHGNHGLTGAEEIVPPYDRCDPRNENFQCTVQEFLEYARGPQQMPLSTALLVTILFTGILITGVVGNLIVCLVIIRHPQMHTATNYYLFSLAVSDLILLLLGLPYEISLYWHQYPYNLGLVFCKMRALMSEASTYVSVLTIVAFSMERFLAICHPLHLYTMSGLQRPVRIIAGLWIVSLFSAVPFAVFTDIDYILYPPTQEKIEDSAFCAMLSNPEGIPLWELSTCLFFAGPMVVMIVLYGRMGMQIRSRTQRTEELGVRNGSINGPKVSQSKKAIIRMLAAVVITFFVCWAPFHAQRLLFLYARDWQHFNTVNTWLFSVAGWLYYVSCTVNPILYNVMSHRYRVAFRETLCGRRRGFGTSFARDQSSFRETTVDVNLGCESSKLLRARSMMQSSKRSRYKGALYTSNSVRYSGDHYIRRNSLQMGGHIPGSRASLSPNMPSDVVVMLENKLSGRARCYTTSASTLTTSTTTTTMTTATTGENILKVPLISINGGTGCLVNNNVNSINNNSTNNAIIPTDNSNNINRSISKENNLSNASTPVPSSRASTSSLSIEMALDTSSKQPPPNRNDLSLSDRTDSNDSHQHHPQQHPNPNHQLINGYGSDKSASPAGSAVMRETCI
Procedure: (B) Raw luminescent response following application of each CAPA gene-derived neuropeptide and representative neuropeptides belonging to several insect families, each tested at 10 μM. For peptide sequence information and species origin, see Table S3. […] Data represent the mean ± standard error (n = 3).
The open reading frame of the cloned A. aegypti CAPAr was inserted into pcDNA3.1+ mammalian expression vector following procedures described previously[60],[92],[93]. Using a recombinant CHO-K1 cell line stably expressing aequorin[59], A. aegypti CAPAr was transiently expressed following growth and transfection conditions as reported recently. Cells were harvested for the functional assay at 48 hours post-transfection by detaching cells from the culture flask using 5 mM EDTA in Dulbecco’s PBS (DPBS; Wisent Corp., St. Bruno, QC) and later cells were resuspended at a concentration of 10^6–10^7 cells/mL in assay media and incubated with coelenterazine h as described previously. Prior to running the functional assay, cells were diluted 10-fold in assay media and left to incubate for one additional hour. Several endogenous as well as other insect neuropeptides representing a variety of neuropeptide families (see Table S2) were tested by preparing serial dilutions of each peptide in assay media. All peptides were commercially synthesized at a purity of >90% (Genscript, Piscataway, NJ) and 1 mM stock solutions were prepared by dissolving 1 mg of each peptide in water or DMSO as appropriate based on specific peptide characteristics. Recombinant CHO-K1 cells expressing the A. aegypti CAPAr were loaded into each well of multi-well plate using an automated injector module linked to a Synergy 2 Multi Mode Microplate Reader (BioTek, Winooski, VT) which measured kinetic luminescent response from each well for 20 sec immediately following cell loading onto the different peptides at various doses. Data was compiled in Microsoft Excel and analyzed in GraphPad Prism 8.0 (GraphPad Software, San Diego, CA).
Table S2. List and primary structure of several insect neuropeptides tested for functional activation of the mosquito anti-diuretic hormone (CAPA) receptor using heterologous bioassay.

[2] = system: isolated MTs of adult female A. aegypti (diuretic hormone-stimulated fluid secretion); assay: Malpighian tubule fluid secretion assay (modified Ramsay assay); design: species or system Aedes aegypti; settings: for effect of inhibitor on inhibition by AedaeCAPA-1 and cGMP, 5HT-stimulated MTs: 5HT 100 nmol l^-1, AedaeCAPA-1 1 fmol l^-1 or cGMP (8 bromo-cGMP) 100 nmol l^-1, L-NAME 2 µmol l^-1 or KT5823 5 µmol l^-1, 60 min
Procedure: To further understand the anti-diuretic signaling pathway involving the CAPA neuroendocrine system, pharmacological blockers, including inhibitors of NOS (L-NAME) and PKG (KT5823), were tested against diuretic hormone-stimulated MTs alone and together with either AedaeCAPA-1 or cGMP.
Figure 5 Effect of a nitric oxide synthase (NOS) inhibitor (L-NAME) on the anti-diuretic activity of AedaeCAPA-1 and cGMP in DromeDH31-stimulated A. aegypti MTs. The NOS inhibitor, L-NAME, was applied against (A) DromeDH31- and (B) 5HT-stimulated MTs alone or in the presence of either AedaeCAPA-1 or cGMP. Secretion rates are presented as mean ± SEM, n = 17–22.
Figure 6 Effect of a protein kinase G (PKG) inhibitor (KT5823) on the anti-diuretic activity of AedaeCAPA-1 and cGMP in DromeDH31-stimulated A. aegypti MTs. The PKG inhibitor, KT5823, was applied against (A) DromeDH31- and (B) 5HT-stimulated MTs alone or in the presence of either AedaeCAPA-1 or cGMP. Secretion rates are presented as mean ± SEM, n = 16–25.
In order to determine fluid secretion rates, a modified Ramsay secretion assay[85] was performed on isolated MTs of 3–6 day old adult female A. aegypti, as reported recently. Tissue dissections were performed under physiological saline prepared as described previously[86] diluted 1:1 with Schneider’s Insect Medium (Sigma-Aldrich, Oakville, ON). Individual MTs were removed and transferred to a Sylgard-lined Petri dish containing 20 μl saline bathing droplets immersed in hydrated mineral oil to prevent evaporation. The proximal end of the MT was removed from the bathing saline and wrapped around a Minuten pin to allow for secretion measurements. Dosages of 25 nmol l^−1 DromeDH31[22] or 100 nmol l^−1 5HT[97],[98] alone or in combination with 1 fmol l^−1 AedaeCAPA-1[37] were applied to the isolated MTs as previously described. […] To investigate the effects of the pharmacological blockers, a nitric oxide synthase (NOS) inhibitor, Nω-Nitro-L-arginine methyl ester hydrochloride (L-NAME), and protein kinase G (PKG) inhibitor, KT5823, were used against 5-HT- and DH31-stimulated MTs. Dosages of 2 µmol l^−1 L-NAME (manufacturer’s recommended dose) and 5 µmol l^−1 KT5823[36] were applied to the MTs. The inhibitors were treated in conjunction with 1 fmol l^−1 AedaeCAPA-1 and/or 100 nmol l^−1 cyclic guanosine monophosphate, 8 bromo-cGMP (cGMP)[37] (Sigma-Aldrich, Oakville, ON, Canada). Unstimulated controls consisted of tubules bathed in physiological saline with no diuretic application. Following a 60-minute incubation period, the size of the secreted droplet was measured using an eyepiece micrometer and fluid secretion rate (FSR) was calculated as described previously. […]

[3] = system: isolated MTs of adult female A. aegypti (diuretic hormone-stimulated fluid secretion); settings: ref [37]; cited from earlier work
Description: The influx of Ca^2+ through these channels activates NOS, causing the production of NO, which subsequently activates guanylate cyclase to increase levels of cGMP in the MTs[44]. Ultimately, the activation of the NO/cGMP pathway stimulates the apical V-type H^+-A ...

[4] = CHO-K1 cells stably expressing aequorin, A. aegypti CAPAr transiently expressed (48 h post-transfection), coelenterazine h, kinetic luminescence for 20 sec, dose-response, n = 3, read-out: EC50 on CAPAr
[5] = n = 17–22 (L-NAME), 16–25 (KT5823)
[6] = CHO-K1-aequorin cells expressing CAPAr, luminescence, tested up to 10 μM, read-out: EC50 on CAPAr (NA = no detectable activity)

CC(C)C[C@H](NC(=O)CNC(=O)[C@@H]1CCC(=O)N1)C(=O)N[C@H](C(=O)N1CCC[C@H]1C(=O)N[C@@H](Cc1ccccc1)C(=O)N1CCC[C@H]1C(=O)N[C@@H](CCCNC(=N)N)C(=O)N[C@H](C(N)=O)C(C)C)C(C)C [CAPA2] ([pGlu]GLVPFPRV-NH2)
CAPAr activation (in words) ([1]; CHO-K1-aequorin cells expressing CAPAr): potently activate this receptor | EC50 [1, 4]: 0.00562 µM | raw luminescent response at 10 μM (in words) ([1]; each peptide at 10 μM, vs BSA vehicle control, one-way ANOVA, Tukey, p < 0.01, n = 3): no difference in response was observed between the two endogenous CAPA neuropeptides

COC(=O)[C@@]1(OC)C[C@H]2O[C@]1(C)n1c3ccccc3c3c4c(c5c6ccccc6n2c5c31)C(=O)N(C)C4 [KT5823]
effect of inhibitor on inhibition by AedaeCAPA-1 and cGMP, 5HT-stimulated MTs [2, 5]: the inhibitory activity of AedaeCAPA-1 and cGMP on 5HT-stimulated tubules was abolished | effect of inhibitor on inhibition of both DH31- and 5HT-stimulated diuresis ([2]; AedaeCAPA-1 1 fmol l^-1 or cGMP 100 nmol l^-1, KT5823 5 µmol l^-1, 60 min): the inhibition of both DH31- and 5HT stimulated diuresis by AedaeCAPA-1 and cGMP were sensitive to the PKG inhibitor, KT5823 | effect of inhibitor on inhibition by both AedaeCAPA-1 and cGMP, DH31-stimulated MTs ([2]; DromeDH31 25 nmol l^-1, AedaeCAPA-1 1 fmol l^-1 or cGMP (8 bromo-cGMP) 100 nmol l^-1, KT5823 5 µmol l^-1, 60 min, n = 16–25): abolished the inhibitory effect of both cGMP and AedaeCAPA-1; also recorded: abolished the anti-diuretic activity of both AedaeCAPA-1 and cGMP, resulting in normal DH31-induced diuresis

COC(=O)[C@@H](N)CCCNC(N)=N[N+](=O)[O-] [L-NAME, Nω-Nitro-L-arginine methyl ester hydrochloride]
effect of inhibitor on inhibition by AedaeCAPA-1 and cGMP, 5HT-stimulated MTs [2, 5]: neither AedaeCAPA-1 nor cGMP inhibition are influenced by L-NAME; also recorded: L-NAME had no influence on the anti-diuretic activity of AedaeCAPA-1 in 5HT-stimulated MTs | effect of inhibitor on inhibition by AedaeCAPA-1, DH31-stimulated MTs ([2]; DromeDH31 25 nmol l^-1, AedaeCAPA-1 1 fmol l^-1, L-NAME 2 µmol l^-1 or KT5823 5 µmol l^-1, 60 min, n = 17–22 (L-NAME), 16–25 (KT5823)): the inhibitory effect of AedaeCAPA-1 was abolished; also recorded: AedaeCAPA-1 mediated inhibition of DH31-stimulated MTs was mitigated in the presence of L-NAME, reducing the anti-diuretic effects observed with AedaeCAPA-1 | effect of inhibitor on inhibition by cGMP, DH31-stimulated MTs ([2]; DromeDH31 25 nmol l^-1, cGMP (8 bromo-cGMP) 100 nmol l^-1, L-NAME 2 µmol l^-1 or KT5823 5 µmol l^-1, 60 min, n = 17–22 (L-NAME), 16–25 (KT5823)): no influence on the inhibitory effect of cGMP; also recorded: did not alter the inhibitory effects of exogenous cGMP

Nc1nc2c(nc(Br)n2[C@@H]2O[C@@H]3COP(=O)(O)O[C@H]3[C@H]2O)c(=O)[nH]1 [cGMP, cyclic guanosine monophosphate, 8 bromo-cGMP]
inhibition of fluid secretion rate (earlier work) [3]: considerably inhibits fluid secretion rate

AGNSGANSGMWFGPRL-NH2 [PK1]
luminescent response as activity compared to either CAPA peptide ([1]; 10 μM (saturating dose), n = 3): ~ 20% | potency compared to the canonical CAPA ligands ([1]; CAPAr in CHO-K1-aequorin cells): over five orders of magnitude lower compared to the canonical CAPA ligands | CAPAr activation (in words) ([1]; CHO-K1-aequorin cells expressing CAPAr, listed as Aedae-PK1): low agonist activity | CAPAr activation (in words) ([1]; CHO-K1-aequorin cells expressing CAPAr, listed as pyrokinin 1-related peptide): very poor activity compared to the two CAPA peptides | CAPAr activation (in words) ([1]; CHO-K1-aequorin cells expressing CAPAr, listed as pyrokinin-1): a significantly higher concentration of pyrokinin-1 was needed to achieve even low level CAPAr activation | EC50 ([1]; CHO-K1 cells stably expressing aequorin, A. aegypti CAPAr transiently expressed (48 h post-transfection), coelenterazine h, kinetic luminescence for 20 sec, tested up to 10 μM, read-out: EC50 on CAPAr): > 10 µM

AWNSLHGGW-NH2 [MIP-7]
EC50 [1, 6]: > 10 µM

GPTVGLFAFPRV-NH2 [CAPA1]
EC50 [1, 4]: 0.00676 µM

GYRKPPFNGSIF-NH2 [SIFa]
EC50 [1, 6]: > 10 µM

KAVRSPSLRLRF-NH2 [sNPF]
EC50 [1, 6]: > 10 µM

NSVVLGKKQRFHSWG-NH2 [kinin]
EC50 [1, 6]: > 10 µM

NTVNFSPRL-NH2 [PK2-1]
EC50 [1, 6]: > 10 µM

SALDKNFMRF-NH2 [FMRFa-1]
EC50 [1, 6]: > 10 µM

SPPFAPRL-NH2 [PK2-2]
EC50 [1, 6]: > 10 µM
